Measurements as given in the METLIN SMRT retention time set (Domingo-Almenara et al. 2019).

assay: gradient 5% acetonitrile 3 min, to 50% in 2 min, to 85% in 15 min, held 3 min, 100 µL/min; conditions: column: Zorbax Extend-C18 2.1 x 50 mm; eluents: water / acetonitrile, 0.1% formic acid
Outline: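 Data were gathered over 3 months by HPLC coupled to a quadrupole time-of-flight mass spectrometer, operated in positive and negative ionization mode. Mixtures of ~100 pure standards ran on a Zorbax Extend-C18 column (2.1 × 50 mm, 1.8 μm) at 100 μL/min, with water and acetonitrile each containing 0.1% formic acid and dead and dwell volumes of 40 μL and 900 μL. Retention time was read from adduct peaks picked by computer and checked manually.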

In order of rising RP-LC retention time:
1. CC(C)[C@H]1C(=O)O[C@@H]2CCN3CC=C(COC(=O)[C@](C)(O)[C@]1(C)O)[C@H]23  584 s
2. Cc1cc(NCCCn2ccnc2)n2nc(C(F)(F)F)c(-c3ccccc3)c2n1  591 s
3. Cc1cc(N2CCN(C(=O)c3nccc4ccccc34)CC2)nc2nnc(C)n12  592 s
4. CCn1c(C2CCN(C(=O)c3ccoc3)C2)nc2cccnc21 (centres undefined)  604 s
5. Cc1cc(C)n(-c2ccc(=O)n(CCNC(=O)CCn3cnc4ccccc4c3=O)n2)n1  605 s
6. O=S(=O)(c1cccc2cccnc12)N1CCCn2nc(-c3ccncc3)cc2C1  610 s
7. Cc1ccc(C(=O)N2C[C@@H]3C[C@H]2C[C@@H]3NS(=O)(=O)c2ccccc2)cn1  615 s
8. COc1ccc(-c2cc(N3CCN(C(=O)Nc4ccc(OC)c(OC)c4)CC3)ncn2)cc1  620 s
9. Cc1ccc(N2CCN(Cc3c(C)noc3C)CC2)cc1  621 s
10. COc1cc2c(cc1OC)C1C(C(=O)NCCCN3CCC(C)CC3)c3ccccc3C(=O)N1CC2 (centres undefined)  629 s
11. O=C(c1cccc(Br)c1)N1CCN(C(=O)N2CCOCC2)CC1  631 s
12. CC1=C(c2ccc(Cl)cc2)S(=O)(=O)N=C1N1CCCN(C(=O)Cn2ccnc2)CC1  633 s
13. O=C(Cc1c(F)cccc1Cl)NC1CCN(c2cc(-c3ccccc3)[nH]n2)C1 (centres undefined)  638 s
14. N#Cc1ccccc1NC(=O)c1ccc(N2C(=O)CCC2=O)cc1  639 s
15. CCCN1C(=O)Cc2ccccc2C1C(=O)N1CCOCC1 (centres undefined)  650 s
16. COc1ccc(-c2ccc(N3CCN(C(=O)Cc4cn(C)c5ccccc45)CC3)nn2)cc1  656 s
17. CS(=O)(=O)Nc1cccc(NC(=O)CN2CCN(c3ccc4c(c3)OCCO4)C2=O)c1  657 s
18. COc1ccc2[nH]c3c(C)c4ccncc4c(C)c3c2c1  658 s
19. Cc1cc(C)n2nc(SCC(=O)NCc3ccc(F)cc3)nc2n1  671 s
20. Cc1cccc(N2CC(C(=O)NC(C)C)CC2=O)c1 (centres undefined)  678 s
21. Cc1ccc2oc(CN3CCN(C(=O)Nc4ccccc4)CC3)nc2c1  678 s
22. CCc1nnc([C@@H]2CC(F)(F)CN2C(=O)Cc2c(C)noc2C)o1  681 s
23. CC(C)(CO)NCc1ccc(-c2ccc(Cl)cc2Cl)o1  685 s
24. Cc1ccc2[nH]cc(CCN3CC(C(=O)N4CCc5ccccc5C4)CC3=O)c2c1 (centres undefined)  698 s
25. Cn1nc(-c2ccsc2)nc1C1CN(S(=O)(=O)c2cccnc2)C1  712 s
26. CCCn1cc(CCNS(=O)(=O)CCC)c2cccnc21  720 s
27. Cc1ccc(-c2cn3cccnc3n2)cc1NC(=O)CC1CCCCC1  720 s
28. COC(=O)c1cc2c([nH]c1=O)CC(c1ccc(Cl)cc1)CC2=O (centres undefined)  728 s
29. O=C(Cn1nc(N2CCOCC2)c2ccccc2c1=O)Nc1ccc2c(c1)OCO2  733 s
30. O=C(c1cccs1)N1CCN(c2cc(-c3ccccc3)[nH]n2)CC1  734 s
31. CCCc1c(C(=O)O)nnn1Cc1cccc(OC)c1  738 s
32. CCCCN1CCN(c2ncccc2-c2nnc(-c3ccc(Cl)cc3)o2)CC1  743 s
33. COc1ccc(OC)c(NC(=O)C2(C)Oc3cccnc3NC2=O)c1 (centres undefined)  746 s
34. Cn1c(Cn2c(=O)sc3ccccc32)nnc1SCC(=O)N1CCc2ccccc21  746 s
35. COc1cc(NC(=O)NCCc2nc3cccnc3n2C2CCCCC2)cc(OC)c1  751 s
36. CC(C)CN1C(=O)c2cccn2CC1C(=O)NCc1cccs1 (centres undefined)  754 s
37. COc1ccc(C2C(C(=O)NCc3ccco3)c3cc(OC)c(OC)cc3C(=O)N2C)cc1 (centres undefined)  758 s
38. CCN(CC)C(=O)c1c2c(cn(-c3ccc(F)cc3)c1=O)C(=O)CC(C)(C)C2  759 s
39. CCc1nnc(-c2ccc3ccn(CC(=O)NCCc4ccc(OC)c(OC)c4)c3c2)o1  760 s
40. O=C(N[C@H](Cc1ccccc1)C(=O)NCc1cscn1)c1cccc(F)c1  762 s
41. O=C(Nc1ccccc1Cl)N1CCC(N2CCN(Cc3ccc(F)cc3)C(=O)C2=O)CC1  776 s
42. COc1ccc(NC(=O)C2CCN(S(=O)(=O)c3ccc4c(c3)CCCN4C(C)=O)CC2)cc1  780 s
43. COC(=O)c1cc2c(=O)n(-c3ccc4c(c3)OCCO4)ccc2nc1C  780 s
44. CCOc1cccc(CNC(=O)C2CCCN(c3ncnc4c3oc3ccccc34)C2)c1 (centres undefined)  782 s
45. COC(=O)c1c(NCC(C)C)c2cccc(Cl)c2[nH]c1=O  792 s
46. CC(C)CCN1CCC(N2CCN(S(=O)(=O)c3ccc(C(F)(F)F)cc3)CC2)C1=O (centres undefined)  794 s
47. Cc1cccc(CNC(=O)c2cc3n(n2)CC(C)(C(=O)NCCC(C)C)N(C)C3=O)c1 (centres undefined)  801 s
48. COC(=O)c1c(NCc2cc(OC)ccc2OC)c2cccc(Cl)c2[nH]c1=O  808 s
49. CCCNC(=O)c1cc2sccc2n1C  816 s
50. CC1=C(c2cccc(Cl)c2)S(=O)(=O)N=C1N1CCCN(C(=O)c2ccco2)CC1  818 s
51. CCCCNC(=O)C1CCN(c2ccc(Sc3cc(C)ccc3C)nn2)CC1  819 s
52. O=C([C@@H]1C[C@H](F)CN1S(=O)(=O)c1cccs1)N1CCc2ccccc2C1  830 s
53. CCOC(=O)CNc1nc(-c2cccc([N+](=O)[O-])c2)nc2ccccc12  833 s
54. C=Cc1ccc(Cn2ccn(-c3cccc(Cl)c3C)c(=O)c2=O)cc1  843 s
55. CCn1cc(-c2nc(CC(=O)NCc3ccccc3F)cs2)c2cccnc21  843 s
56. O=C(Nc1ccc(F)cc1)C1CCCN(c2ccc(=O)n(-c3ccc(F)cc3)n2)C1 (centres undefined)  849 s
57. COc1ccc(-c2cc(C(F)(F)F)n3nc(C(=O)O)cc3n2)cc1  851 s
58. CCC(=O)N1CCc2cc(C)c(S(=O)(=O)NC3CCCC3)cc21  869 s
59. O=C(Nc1ccccc1)N1CCC(Oc2ccccc2)C1 (centres undefined)  872 s
60. CCn1nc(C)n2cc(S(=O)(=O)NC(C)c3ccccc3)cc2c1=O (centres undefined)  882 s
61. Cc1cccc(N(C)C(=O)Cn2c(=O)n(-c3ccc(F)cc3)c(=O)c3c2cc(C)n3C)c1  888 s
62. Cc1ccc(NC(=O)C2CCCN(c3nccc(C)n3)C2)c(Br)c1 (centres undefined)  889 s
63. Cc1cccc(N2CCN(C(=O)c3ccnc(N4CCCC4)n3)CC2)c1  894 s
64. Cc1ccc(S(=O)(=O)N(C)CC2CCOC2)cc1Cl (centres undefined)  895 s
65. COC(=O)C1=CN(c2cccc(Cl)c2)c2cc(F)ccc2S1(=O)=O  897 s
66. CCc1ccc(S(=O)(=O)N2CCCN(c3ccc(=O)n(-c4ccccc4)n3)CC2)cc1  904 s
67. COc1ccccc1CNS(=O)(=O)c1ccc(-c2c(C)noc2C)cc1  922 s
68. Cc1ccc2c(c1)N(C(=O)Cn1ccn3nc(-c4ccc(F)cc4)c(CO)c3c1=O)CCO2  930 s
69. Cc1ccc(NC(=O)Cc2csc3nc(-c4ccc(C)c(C)c4)cn23)c(C)c1  930 s
70. O=C(Cc1cccs1)Nc1ccc(SCc2nnc(-c3ccccc3)o2)cc1  940 s
71. CC(=O)N1CCc2sc(S(=O)(=O)N3CCN(c4ccccc4Cl)CC3)cc2C1  945 s
72. Cc1nn(CC(=O)NC2CCCC2)c(=O)c2c(-n3cccc3)n(-c3cccc(F)c3)nc12  964 s
73. COCC(=O)N(CC(=O)N1CCc2sccc2C1COc1ccc(C)cc1C)CC1CC1 (centres undefined)  982 s
74. COc1ccc(-c2nc(-c3nnn(Cc4ccccc4)c3C)no2)c(OC)c1  990 s
75. CC1CCN(c2ccc(-c3noc(CNC(=O)c4cccs4)n3)cc2)CC1  993 s
76. N#C/C(=C\c1cccnc1)c1ccc(Br)cc1  999 s
77. C=CCN1C(=O)COc2ccc(-c3nc(NC(=O)Cc4ccccc4)sc3C)cc21  1000 s
78. CCc1nc2cc(-c3noc(-c4cc5ccccc5oc4=O)n3)ccc2o1  1010 s
79. CCOC(=O)c1sc2nc(NC(=O)Cc3ccccc3)sc2c1C  1020 s
80. COc1ccc(-n2c(=O)c3sccc3n(Cc3nc(-c4ccc(Cl)c(F)c4)no3)c2=O)cc1  1060 s
81. COc1ccc(-c2nnc(-c3cccnc3NCc3cccc(OC)c3OC)o2)cc1  1060 s
82. Cc1nc2nc(-c3ccc(C(C)(C)C)cc3)nn2c(C)c1CC(=O)N1CCC(C)CC1  1090 s
83. Cc1ccc(C)c(CNC(=O)c2ccc(-c3nc4cccnc4n3C3CCCCC3)cc2)c1  1120 s
84. O=C(Nc1ccccc1)N1CC(Oc2cccc(-c3nc(-c4ccccc4)no3)c2)C1  1160 s
85. COc1cc(OC)cc(-c2nc(-c3cccc(-c4ccnn4C)c3)no2)c1  1160 s
86. Cc1ccccc1CNC(=O)C1CCCN(c2nccnc2Sc2ccccc2)C1 (centres undefined)  1200 s
87. O=S(=O)(c1ccc(-c2noc(-c3ccc(Cl)cc3)n2)cc1)N1CCCC1  1260 s
88. Cc1cccc(-c2nc(C3CCN(S(=O)(=O)c4cc(C)ccc4C)CC3)no2)c1  1320 s
89. COc1ccccc1Nc1nc(-c2ccc(Br)cc2)cs1  1340 s
